Measurements taken from patent US11253497B2, “Use of derivatives of polyunsaturated fatty acids as medicaments” (Lipopharma Therapeutics, S.L., priority 2009, dated 2022).

Tests used:
α-synuclein = experiment: Expression of α-synuclein in neuronal cultures (cells P19); format: cell-based; details: untreated cells 100%
P19 cells = experiment: NMDA-induced neuronal death in P19 cells; format: cell-based; details: NMDA alone 100% death, control without NMDA 0%; negative values = proliferation
lung cancer cells A549 = experiment: Growth of lung cancer cells A549 (IC50); format: cell-based, human; details: 72 hours of incubation
Description: (§1) For the experiments shown in FIG. 1, cultured human Non Small Cell Lung Cancer cells (A549) in RPMI 1640 were used, supplemented with 10% foetal bovine serum and antibiotics, at 37° C. and 5% CO2. […] After treatment, cell count was performed and the study of the mechanisms involved in the antitumor activity of compounds was evaluated by flow cytometry. […] These values correspond to averages of three independent experiments.
(§2) These charts show the antitumor efficacy of the compounds of this invention against the growth of breast cancer cells, brain (glioma), and lung cancer. […] The other experimental conditions are identical to those described in the preceding paragraph.

[1] = test system: brain cancer cell (glioma) U118; experiment: Brain cancer (glioma) U118 cell growth; format: cell-based; details: 72 hours of incubation
Description: For the experiments shown in FIG. 1, cultured human Non Small Cell Lung Cancer cells (A549) in RPMI 1640 were used, supplemented with 10% foetal bovine serum and antibiotics, at 37° C. and 5% CO2. Cells were maintained in culture for 48 hours in the presence or absence of D-PUFAs and PUFAs indicated in Table 2 at a concentration of 250 µM. After treatment, cell count was performed and the study of the mechanisms involved in the antitumor activity of compounds was evaluated by flow cytometry. […] These values correspond to averages of three independent experiments.
as §2

[2] = test system: Spontaneously Hypertensive Rats (SHR); experiment: Blood pressure of SHR rats (cuff-tail method); format: in vivo, rat; details: 200 mg/kg day p.o., 30 days, before treatment 214 mmHg
Description: (§3) In a separate experimental series, it was studied the effect of D-PUFA molecules of the present invention on blood pressure of SHR rats. In these animals both, blood pressure and levels of apolipoprotein AI (apoA-I) were measured. For these experiments Spontaneously Hypertensive Rats (SHR) were treated for 30 days with vehicle (water control) or compounds of the invention (200 mg/kg day, p.o.). At the end of this period, the animals' blood pressure and serum levels of apoA-I were measured. […] For these experiments, non-invasive methods for determining blood pressure (cuff-tail method) and gene expression for apoA-I (RT-PCR) described in the literature (Terés et al., 2008) were used. The usefulness of the molecules of the present invention for the treatment of cardiovascular diseases is reinforced by its capacity for reducing the levels of serum cholesterol and triglycerides (see below).
(§4) The average values of SHR before treatment were 214 mmHg and 100% respectively.

[3] = test system: apolipoprotein AI (apoA-I); experiment: Levels of apoA-I in SHR rats (RT-PCR); format: in vivo, rat; details: 200 mg/kg day p.o., 30 days, before treatment 100%
Description: as §3, §4

COX-2 = experiment: Expression of COX-2 in LPS-stimulated monocytes in culture; format: cell-based, human; details: positive control with LPS 100%
Excerpt: FIG. 5A also presents a drawing showing the COX-2/COX-1 relationship as % of control (Y axis) for the following compounds (X-axis): OOA (2-hydroxy-oleic acid), OLA (182A1), OALA (183A1), OGLA (183A2), OARA (204A1), OEPA (205A1), ODHA (226A1). […] The reduction of this factor is directly related to the anti-inflammatory medication. The compounds are the same as in the left pane.
(§5) Cyclooxygenase (COX) is an enzyme that can bind to membranes, taking certain lipids from there and catalyze its conversion into molecules that can have inflammatory activity. The binding of this enzyme to membrane lipids is due in part to the membrane lipid structure. The increased activity of COX 1 and 2 isoforms has been associated with the etiopathology of a number of inflammatory diseases by […] arachidonic acid metabolism to produce pro-inflammatory lipid mediators. The D-PUFA compounds of the present invention produced a series of cellular signals that alter the metabolism of arachidonic acid and, as a result, they inhibit the activity and expression of COX in monocytes in culture (Table 14 and FIG. 5A). […] For this purpose, C57BL6/J mice were treated with the various derivatives (200 mg/kg, p.o.,) after inducing an inflammatory reaction in them by intraperitoneal injection of 20 μg of bacterial lipopolysaccharide (LPS).
Inhibition of COX-2 expression in monocytes. Percentages of inhibition (compared to the positive control in the presence of LPS, 100%) of COX-2 protein levels (expression) by the various fatty acid derivatives.

TNF-α = experiment: Production of TNF-α in serum of LPS-injected C57BL6/J mice; format: in vivo; details: LPS 20 μg i.p. (100%), 200 mg/kg p.o.
Excerpt: as §5

[4] = Serum cholesterol, triglycerides and glucose in SHR rats (colorimetric); format: in vivo, rat; details: 200 mg/kg daily p.o., 28 days, untreated rats 100%
Description: In a separate experimental series, SHR rats were treated with various compounds of the present invention (200 mg/kg daily, 28 days, p.o.) and the levels of cholesterol, triglycerides and glucose in serum were measured by colorimetric methods. It was observed that these compounds induce significant (and in many cases marked) reductions in the levels of these metabolites (Table 16).
Values are expressed as percent, and in untreated (control) rats values were always considered as 100%.

[5] = test system: breast cancer cells MDA-MB-231; experiment: Growth of breast cancer cells MDA-MB-231; format: cell-based; details: 72 hours of incubation
Description: as §1, §2

IC50 (lung cancer cells A549) [µM]	IC50 [1] [µM]	IC50 [5] [µM]	SMILES	Expression of α-synuclein (α-synuclein) [%]	Neuronal death (P19 cells) after treatment with NMDA (P19 cells) [%]	Blood pressure [2] [mm Hg]	Levels of apoA-I [3] [%]	COX-2 protein levels (expression), percentages of inhibition compared to positive control (COX-2) [%]	Production of TNF-α in serum (TNF-α) [%]	Cholesterol in serum (top number) [4] [%]	Glucose in serum (bottom number) [4] [%]	Triglycerides in serum (central number) [4] [%]
329	247	297	CCCCCC=CCC=CCCCCCCC(C)C(=O)OCC (stereo not shown) [182N1]			187	159			92	90	93
379	324	278	CCC=CCC=CCC=CCCCCCCC(C)C(=O)OCC (stereo not shown) [183N1]			208	189			72	84	69
255	385	186	CCCCCC=CCC=CCC=CCCCC(C)C(=O)OCC (stereo not shown) [183N2]			194	296			89	92	85
420	315	274	CCCCCC=CCC=CCC=CCC=CCCC(C)C(=O)OCC (stereo not shown) [204N1]			201	174			82	82	81
384	513	289	CCC=CCC=CCC=CCC=CCC=CCCC(C)C(=O)OCC (stereo not shown) [205N1]			189	293			80	86	73

SMILES	IC50 (lung cancer cells A549) [µM]	IC50 [1] [µM]	IC50 [5] [µM]	Expression of α-synuclein (α-synuclein) [%]	Neuronal death (P19 cells) after treatment with NMDA (P19 cells) [%]	Blood pressure [2] [mm Hg]	Levels of apoA-I [3] [%]	COX-2 protein levels (expression), percentages of inhibition compared to positive control (COX-2) [%]	Production of TNF-α in serum (TNF-α) [%]	Cholesterol in serum (top number) [4] [%]	Glucose in serum (bottom number) [4] [%]	Triglycerides in serum (central number) [4] [%]
CCCCCC=CCC=CCCCCCCC(O)C(=O)OP(=O)(OCC)OCC (stereo not shown) [182F1]	354	236	311	71	−45	198	192	56	86	92	89	88
CCCCCC=CCC=CCCCCCCC(C)C(=O)[O-].[Na+] (stereo not shown) [182L1]	385	229	343	80	−32	207	131	67	85	89	94	93
CCCCCC=CCC=CCCCCCCC(OC=O)C(=O)OCC (stereo not shown) [182V1]	340	231	442	83	−17	207	166	81	81	94	93	93
CCC=CCC=CCC=CCCCCCCC(O)C(=O)OP(=O)(OCC)OCC (stereo not shown) [183F1]	347	354	323	61	−35	203	146	46	91	78	76	71
